Data reported in patent US7498343B2, “Mycobacterial inhibitors” (priority 2002, dated 2009).
Values after ≈ are worked out from the molar mass of the structure shown. Like-named read-outs stand apart in the source and are kept apart here.

How the values were obtained:
[1] = test system: Mycobacterium tuberculosis (strain H37RV); test: In-vitro method for testing compounds against M. tuberculosis (resazurin growth inhibition, MIC); assay type: cell-based; settings: MIC data representing IC90's, 7 days incubation, resazurin fluorescence
M. Smegmatis ATCC607 = test: In-vitro method for testing compounds for anti-bacterial activity against strain M. smegmatis ATCC607 (Alamar Blue growth inhibition); assay type: cell-based; settings: M. smegmatis ATCC607, pIC50 = -logIC50, IC50 in M, 50% inhibitory concentration for bacterial growth, 48 hours incubation
How it was run: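 About 250 CFU/well M. smegmatis ATCC607 in Mueller-Hinton broth exposed to five-fold serial compound dilutions, 48 h at 37 °C, humidified 5% CO2. Growth read by Alamar Blue fluorescence (ex 530/em 590 nm) after 2 h further incubation; % growth inhibition calculated.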

[2] = Mycobacterium tuberculosis, H37RV, 168 h, read-out: MIC

Compound | MIC [1] [microgram/ml] | pIC50 (M. Smegmatis ATCC607) | melting point [°C] | MIC [1, 2] [µg/mL] | IC50 (M. Smegmatis ATCC607; Mycolicibacterium smegmatis, ATCC607, 48 h, read-out: pIC50 (converted)) [nM]
CN(C)CCC(O)(c1ccccc1)C(c1ccccc1)c1cnc2ccc(Br)cc2c1 (stereo not drawn) [Compound 7] | 47.54 | 4.6 | 98 |  | 
CCOc1nc2ccc(Br)cc2cc1C(c1ccccc1)C(O)(CCN(C)C)c1ccccc1 (stereo not drawn) [Compound 5] | 0.33 | 7.8 | 162 |  | 
COc1nc2ccc(Br)cc2cc1C(c1ccccc1)C(O)(CC[N+](C)(C)[O-])c1cccc2ccccc12 (stereo not drawn) [Compound 99] |  |  | 218 | 9.06 (≈ 15.9 µM) | 12.6
COc1nc2ccc(Br)cc2cc1C(c1ccccc1)C(O)(CCCN(C)C)c1ccccc1 (single isomer, unassigned) [Compound 63] | 1.64 | 6.7 |  |  | 
COc1nc2ccccc2cc1C(c1ccccc1)C(O)(CCN(C)C)c1ccccc1 (single isomer, unassigned) [Compound 40] | 21.38 | 4.7 |  |  | 
COc1nc2ccc(Br)cc2cc1C(c1ccccc1)C(O)(CCN(C)C)c1cc(F)ccc1F (stereo not drawn) [Compound 110] | 0.34 | 8.5 |  |  | 
COc1nc2ccc(Br)cc2cc1C(c1ccccc1)C(O)(CCN1CCCCC1)c1ccc2cc(Br)ccc2c1 (stereo not drawn) [Compound 166] | 67.45 | 4.1 |  |  | 
COc1nc2ccc(Br)cc2cc1C(c1ccccc1)C(O)(CCCCN(C)C)c1ccccc1 (single isomer, unassigned) [Compound 65] | 1.69 | 5.7 |  |  | 
COc1nc2ccc(Br)cc2cc1C(c1ccccc1)C(O)(CC[N+](C)(C)[O-])c1ccccc1 (racemic) [Compound 58] | 16.49 | 6.8 |  |  | 
COc1nc2ccc(Br)cc2cc1C(c1ccccc1)C(O)(CCCN1CCCC1)c1ccc2ccccc2c1 (single isomer, unassigned) [Compound 132] | 47.31 | 4.4 |  |  | 
COc1nc2c(C)cc(Br)cc2cc1C(c1ccccc1)C(O)(CCN(C)C)c1cccc(F)c1 (single isomer, unassigned) [Compound 220] | 8.52 | 5.3 |  |  | 
COc1nc2ccc(Br)cc2cc1C(c1ccccc1)C(O)(CCCCN(C)C)c1ccccc1 (single isomer, unassigned) [Compound 66] | 1.69 | 4.7 |  |  | 
COc1nc2ccccc2cc1C(c1ccccc1)C(O)(CCN(C)C)c1cccc2ccccc12 (racemic) [Compound 91] | 1.51 | 7.5 |  |  | 
CN(C)CCC(O)(c1ccccc1)C(c1ccccc1)c1cc2cc(Br)ccc2n(C)c1=O (single isomer, unassigned) [Compound 107] | 44.13 | 5.8 |  |  | 
COc1nc2ccc(Br)cc2cc1C(c1ccccc1)C(O)(CCN1CCN(C)CC1)c1ccc2ccccc2c1 (racemic) [Compound 137] | 42.23 | 4.6 |  |  | 
COc1nc2cccc(Br)c2cc1C(c1ccccc1)C(O)(CCN(C)C)c1cccc2ccccc12 (single isomer, unassigned) [Compound 221] | 44.13 | 6.5 |  |  | 
COc1nc2ccc(Br)cc2cc1C(c1ccccc1)C(O)(CCN(C)C)c1ccc(N2CCOCC2)cc1 (racemic) [Compound 90] | 59.06 | 5.3 |  |  | 
COc1nc2ccc(-c3ccco3)cc2cc1C(c1ccccc1)C(O)(CCN(C)C)c1cccc(F)c1 (single isomer, unassigned) [Compound 175] | 10.19 | 6.5 |  |  | 
COc1nc2ccc(Br)cc2cc1C(c1ccccc1)C(O)(CC[N+](C)(C)C)c1ccccc1.[I-] (racemic) [Compound 57] | 25.77 | 5.4 |  |  | 
COc1nc2ccc(Br)cc2cc1C(c1ccccc1)C(O)(CCN1CCN(C)CC1)c1ccc2cc(Br)ccc2c1 (single isomer, unassigned) [Compound 153] | 54.77 | 5.3 |  |  | 
COc1nc2ccc(Br)cc2cc1C(c1ccc(F)cc1)C(O)(CCN(C)C)c1cccc2ccccc12 (racemic) [Compound 205] | 4.56 | 7.2 |  |  | 
COc1nc2ccc(Br)cc2cc1C(c1ccccc1)C(O)(CCN(C)C)c1cc(F)cc(F)c1 (stereo not drawn) [Compound 116] | 8.58 | 6.6 |  |  | 
CN(C)CCC(O)(c1cccc2ccccc12)C(c1ccccc1)c1cc2cc(Br)ccc2[nH]c1=O (single isomer, unassigned) [Compound 138] | 8.58 | 6.6 |  |  | 
COc1nc2ccc(-c3cc4ccccc4s3)cc2cc1C(c1ccccc1)C(O)(CCN(C)C)c1cccc(F)c1 (single isomer, unassigned) [Compound 203] | 1.15 | 8.0 |  |  | 

Compound | MIC [1] [microgram/ml] | pIC50 (M. Smegmatis ATCC607) | melting point [°C] | MIC [1, 2] [µg/mL] | IC50 (M. Smegmatis ATCC607; Mycolicibacterium smegmatis, ATCC607, 48 h, read-out: pIC50 (converted)) [nM]
COc1nc2ccc(Br)cc2cc1C(c1ccccc1)C(O)(CCN(C)C)c1cc(F)ccc1F (stereo not drawn) [Compound 111] | 1.71 | 6.4 |  |  | 
COc1nc2ccc(Br)cc2cc1C(c1ccccc1)C(O)(CCN1CCCC1)c1ccc2ccccc2c1 (stereo not drawn) [Compound 170] |  | 5.6 |  | 46.2 (≈ 79.4 µM) | 
COc1nc2ccc(Br)cc2cc1C(c1ccccc1)C(O)(CCn1cncn1)c1ccccc1 (racemic) [Compound 54] | 52.94 | 4.1 |  |  | 
COc1nc2ccc(Br)cc2cc1C(c1ccccc1)C(O)(CCN(C)C)c1ccc(F)cc1 (single isomer, unassigned) [Compound 182] | 8.30 | 6.3 |  |  | 
COc1nc2ccc(Br)cc2cc1C(c1ccccc1)C(O)(CCN(C)C)c1ccc2ccccc2c1 (racemic) [Compound 46] | 1.76 | 6.4 |  |  | 
COc1nc2ccccc2cc1C(c1ccccc1)C(C)(O)CCN(C)C (single isomer, unassigned) [Compound 43] | 44.34 | 4.4 |  |  | 
COc1nc2ccc(Br)cc2cc1C(c1ccccc1)C(O)(CCn1cncn1)c1ccccc1 (racemic) [Compound 53] | 52.94 | 5.1 |  |  | 
COc1ccc2cc(C(O)(CCN(C)C)C(c3ccccc3)c3cc4cc(Br)ccc4nc3OC)ccc2c1 (single isomer, unassigned) [Compound 162] | 9.28 | 7.0 |  |  | 
COc1nc2ccc(Br)cc2cc1C(c1ccccc1)C(O)(CCCCN(C)C)c1cccc2ccccc12 (single isomer, unassigned) [Compound 197] | 9.25 | 6.6 |  |  | 
COc1nc2ccc(Br)cc2cc1C(c1ccccc1)C(O)(CCN(C)C)c1cccc2ccccc12 (stereo not drawn) [Compound 15] | 2.78 | 6.5 |  |  | 
COc1nc2ccc(Br)cc2cc1C(c1ccccc1)C(O)(CCN(C)C)C1CCN(C(=O)c2ccccc2)CC1 (single isomer, unassigned) [Compound 202] | 48.98 | 4.8 |  |  | 
COc1nc2ccc(Br)cc2cc1C(c1ccccc1)C(O)(CCN1CCCCC1)c1ccc2cc(Br)ccc2c1 (stereo not drawn) [Compound 155] |  | 4.9 |  | 67.5 (≈ 100 µM) | 
CCN(CC)CCC(O)(c1ccccc1)C(c1ccccc1)c1cc2cc(Br)ccc2nc1OC (stereo not drawn) [Compound 19] | 6.72 | 6.5 |  |  | 
COc1nc2ccc(Br)cc2cc1C(c1ccccc1)C(O)(CCN1CCN(c2ncccn2)CC1)c1ccc2ccccc2c1 (single isomer, unassigned) [Compound 200] | 67.47 | 4.9 |  |  | 
COc1nc2ccc(Br)cc2cc1C(c1ccccc1)C(O)(CCN1CCOCC1)c1ccc2cc(Br)ccc2c1 (single isomer, unassigned) [Compound 178] | 67.65 | 4.5 |  |  | 
COc1nc2ccc(Br)cc2cc1C(c1ccccc1)C(O)(CC[N+](C)(C)[O-])c1cccc2ccccc12 (single isomer, unassigned) [Compound 100] | 45.40 | 7.1 |  |  | 
COc1nc2ccc(Br)cc2cc1C(c1ccccc1)C(O)(CCN1CCCCC1)c1cccc2ccccc12 (stereo not drawn) [Compound 145] |  | 5.3 |  | 59.6 (≈ 100 µM) | 
COc1nc2ccc(Br)cc2cc1C(c1ccccc1)C(O)(CCN(C)C)c1cc(F)ccc1F (stereo not drawn) [Compound 67] | 0.34 | 8.6 |  |  | 
COc1nc2ccc(Br)cc2cc1C(c1ccccc1)C(O)(CCn1ccnc1)c1ccccc1 (stereo not drawn) [Compound 50] | 52.85 | 5.0 |  |  | 
COc1nc2cc(Br)ccc2cc1C(c1ccccc1)C(O)(CCN(C)C)c1cccc2ccccc12 (single isomer, unassigned) [Compound 217] | 44.13 | 6.9 |  |  | 
COc1nc2ccc(Br)cc2cc1C(c1ccccc1)C(O)(CCN(C)C)c1ccc(Cl)cc1 (single isomer, unassigned) [Compound 16] | 0.34 | 6.8 |  |  | 
CCN(C)CCC(O)(c1cccc2ccccc12)C(c1ccccc1)c1cc2cc(Br)ccc2nc1OC (stereo not drawn) [Compound 147] | 11.36 | 7.4 |  |  | 
CSc1nc2ccc(Br)cc2cc1C(c1ccccc1)C(O)(CCN(C)C)c1cccc2ccccc12 (racemic) [Compound 88] | 45.40 | 6.8 |  |  | 
COc1ccc2nc(OC)c(C(c3ccccc3)C(O)(CCN(C)C)c3ccccc3)cc2c1 (single isomer, unassigned) [Compound 35] | 1.82 | 6.8 |  |  | 
